Reference: patent publication US7598028B2, “Compositions and methods for detecting and treating prostate disorders” (The Regents of the University of Michigan, priority 2006, dated 2009)

Assays:
Format in all cases: cell-based, human
N15C6 cells = experiment: Migratory/invasive response to CXCL5, N15C6 (contemplated); conditions: 2 hours pre-treatment: 100 nM wortmannin, 20 uM LY294002a or 10 mM tyrphostin A9
Method: (§1) PC3 cells invaded through Matrigel in response to both CXCL5 and CXCL12. In experiments conducted during the development of embodiments for the present invention, the effect for CXCL12 was abrogated when the cells were pre-treated with antibody against the CXCR4 receptor but not when the cells were treated with the IgG isotype control. […] It is contemplated that PI3K-mediated FAK activation is involved in CXCL5-stimulated epithelial cell migration. Protein purified from cells exposed to CXCL5 using Western blot analysis and antibodies to FAK, Crk, p130Cas, and the phospho-forms of these proteins will be examined. It is contemplated that PI3K signaling involvement in the migratory/invasive response to cytokine stimulation by CXCL5 occurs through, for example, phosphorylation of FAK, Crk and p130Cas. It is contemplated that inhibition of downstream PI3K signaling abrogates the migratory/invasive response of CXCL5. For example, it is contemplated that N15C6 or LNCaP cells pre-treated with PI3K inhibitors (e.g., 100 nM wortmannin or 20 uM LY294002a) or 10 mM of the RAFTK/Pyk2 inhibitor tyrphostin A9 for 2 hours, then exposed to CXCL5 previously shown to stimulate the migratory/invasive response, for 2 hours, abroagates the migratory/invasive response of CXCL5.

LNCaP cells = experiment: Migratory/invasive response to CXCL5, LNCaP (contemplated); conditions: 2 hours pre-treatment: 100 nM wortmannin, 20 uM LY294002a or 10 mM tyrphostin A9
Method: as §1

[1] = tested on: N15C6 prostate epithelial cells; experiment: Proliferation assay (cell counts), N15C6; conditions: add back of exogenous chemokine, 96 hours
Method: (§2) Proliferation assays. Cellular proliferation was assessed after plating cells at 50 000 cell/well in triplicate in six-well plates and counting cells after 24 and 96 h of incubation in complete media, serum-free media or serum-free prostate stromal fibroblast conditioned media, as described previously (Macoska J A, et al., (2004) Cancer Genet. Cytogenet. 154, 36-43; incorporated herein by reference in its entirety). Averages and standard deviations of cell number were calculated for each time point under each media condition. To assess the effects of exogenous CXCL12 on cellular proliferation, recombinant human SDF1 alpha/CXCL12 (R & D Systems, 350-NS) was added at the desired concentration in 1 mL SF HIE (or 1 mL SF HIE alone for control) to each well. The cells were counted at 24 and 96 h growth and re-fed at 48 and 72 h growth. Cell counts were normalized to 50 000 cells at 24 h to account for any plating discrepancies.
(§3) Proliferation Assays. Cellular proliferation was assessed after plating cells at 50,000 cell/well in triplicate in six well plates and counting cells after 24 and 96 hours of incubation as described previously (see, e.g., Macoska J A, et al., 2004 Cancer Genet. Cytogenet. 154, 36-43; incorporated herein by reference in its entirety). To assess the effects of exogenous CXCL12 on cellular proliferation, recombinant human SDF1 alpha/CXCL12 (R&D Systems, 350-NS) was added at the desired concentration in 1 ml SF HIE (or 1 ml SF HIE alone for control) to each well. The cells were re-fed at 48 and 72 hours growth and counted at 24 and 96 hours growth. Cell counts were normalized to 50,000 cells at 24 hours to account for any plating discrepancies. Averages and standard deviations of cell number were calculated for each time point under each media condition. Experiments utilizing U0126 were performed as above, except that cells were treated after plating for 2 hours with either DMSO (vehicle) or 5 uM U0126 before addition of CXCL12. Cells were maintained in media containing DMSO or U0126 for the entirety of the experiment. For the antibody blockade experiments, cells were plated at 10,000 cells per well in triplicate in 24 well dishes and pre-incubated with mouse IgG2aκ (BD Pharmingen 555571) or mouse anti-CXCR4 (BD Pharmingen 555971) at 1 ug/ml for 1 hour prior to CXCL12 addition. Cells were maintained in media containing appropriate antibodies for the entirety of the experiment, and cells were counted at 24 and 96 hours as above.
(§4) Proliferation Assays. Cellular proliferation was assessed after plating cells at 50,000 cell/well in triplicate in six well plates and counting cells after 24 and 96 hours of incubation as described previously (see, e.g., Begley L, et al., Genes Chromosomes Cancer. 2006 February; 45(2): 136-46; herein incorporated by reference in its entirety). To assess the effects of exogenous CXCL5 on cellular proliferation, recombinant human CXCL5 (R&D Systems, 254-X) was added at the desired concentration in 2 ml SF media (or 2 ml SF media alone for control) to each well. The cells were re-fed at 24 hours growth and counted at 24 and 96 hours growth. Cell counts were normalized to 50,000 cells at 24 hours to account for any plating discrepancies. Averages and standard deviations of cell number were calculated for each time point under each media condition. For the antibody blockade experiments, 10,000 cells per well were plated in triplicate in 24 well dishes and preincubated with mouse anti-human CXCR2 (Biosource AHR1532X) or mouse antihuman CXCR4 (BD Pharmingen 555971) at 1 ug/ml for 1 hour prior to CXCL5 addition. Cells were maintained in media containing appropriate antibodies for the entirety of the experiment and were counted at 24 and 96 hours as above.

[2] = tested on: N1 prostate fibroblast cells; experiment: Proliferation assay, add back, N1 fibroblasts; conditions: add back of exogenous chemokine, 96 hours
Text: FIG. 6C describes how CXCL1, CXCL5, CXCL6, and CXCL12 stimulate N15C6 prostate epithelial cell proliferation, N1 prostate fibroblast cell proliferation, and LNCaP prostate epithelial cell proliferation compared to serum-free (SF HIE) media alone. “Add back” assays were next performed to determine whether the addition of exogenous CXCL1, CXCL5, CXCL6, and CXCL12 to defined, serum-free media induced […] or LNCaP prostate epithelial or N1 fibroblast cell proliferation. For these and all experiments utilizing N15C6 and LNCaP cells, the N15C6 and N1 cells were used between passage 35-45, and LNCaP cells between passages 25-35, for consistency. All recombinant CXC proteins were obtained from R&D systems (e.g., CXCL1, #275-GR, CXCL5, #254-X; CXCL6, #333-GC, and SDF1 alpha/CXCL12, #350-NS). Cells were plated at 50,000 cells/well in triplicate, treated for 96 hours, and counted. […] Moreover, the concentrations for CXCL1, CXCL5, CXCL6 and CXCL12 observed to be growth-stimulatory for prostate epithelial cells were similar to those secreted into the media by older prostate stromal fibroblasts (see, e.g., FIGS. 6A and 6B).

[3] = tested on: LNCaP prostate epithelial cells; experiment: Proliferation assay (cell counts), LNCaP; conditions: add back of exogenous chemokine, 96 hours
Method: as §2, §3, §4

ERK ½ = experiment: Western blot, ERK phosphorylation in LNCaP cells; conditions: 100 ng/ml EGF or 50 μM CXCL12 (FIG. 19C)
Method: Western Blot Analysis. Cells were lysed, proteins resolved by electrophoresis, and electroblotting was carried out as described previously (see, e.g.; Chaib H, et al., 2001 Cancer Res. 61, 2390-2394; incorporated herein by reference in its entirety). Proteins were detected using antibodies against phospho-ERK½ (Cell Signaling #9101), total ERK½ (Cell Signaling #9102), CXCR4 (Abcam #ab2074), Elk-1 (Cell Signaling #9182), Phospho Elk-1 (Cell Signaling #9181), or beta-actin (Santa Cruz #sc-1615), in conjunction with an ECL detection system.
Western Blot and Protein Analysis. Cells were lysed, proteins resolved by electrophoresis, and electroblotting was carried out as described previously except that 20 ug protein was electrophoresed per gel lane for N15C6 cells and 100 ug protein for LNCaP cells (see, e.g., Begley L, et al., Aging Cell. 2005 December; 4(6):291-8; Begley L A, et al., J Biol. Chem. 2007 Sep. 14; 282(37):26767-74; each herein incorporated by reference in their entireties). Proteins were detected using antibodies against phospho-ERK½ (Cell Signaling #9101), total ERK½ (Cell Signaling, #9102), phospho-p65, (Rockland #100-401-264), total p65 (Rockland #100-4165), STAT3 (9139), phospho-STAT3 (9138), beta-actin (Santa Cruz #sc-1615), or tubulin (Upstate, #DM1A) in conjunction with an ECL detection system. Secondary antibodies included goat anti-rabbit (Cell Signaling, #7074) and goat anti-mouse (Santa Cruz, #SC-2005), and both were used at a 1:5000 concentration. Immunoblots shown are representative of triplicate experiments. Densitometric quantitation of immunoblot films was accomplished by scanning the original films and converting the .tiff files to grayscale. Images were inverted, and mean band intensities were measured using ImageJ (www, followed by, .nih.gov). The mean intensity of adjacent background was also measured for each band and subtracted from band intensity.

Row | Compound | effect on migratory/invasive response of CXCL5 (contemplated) (N15C6 cells) | effect on migratory/invasive response of CXCL5 (contemplated) (LNCaP cells) | cell proliferation compared to serum-free (SF HIE) media alone [1] | cell proliferation compared to serum-free (SF HIE) media alone [2] | cell proliferation compared to serum-free (SF HIE) media alone [3] | ERK phosphorylation (pERK) (ERK ½)
1 | O=c1cc(N2CCOCC2)oc2c(-c3ccccc3)cccc12 [LY294002a] | abroagates | abroagates |  |  |  | 
2 | CC(C)(C)c1cc(C=C(C#N)C#N)cc(C(C)(C)C)c1O [tyrphostin A9] | abroagates | abroagates |  |  |  | 
3 | CXCL1: recombinant CXC protein from R&D systems, #275-GR |  |  | stimulate | stimulate | stimulate | 
4 | CXCL6: recombinant CXC protein from R&D systems, #333-GC |  |  | stimulate | stimulate | stimulate | 
5 | EGF: epidermal growth factor, used at 100 ng/ml |  |  |  |  |  | minimal
